For this test, the target named is T1, thromboxane synthetase (Rattus norvegicus, UniProt P49430).
T1 sequence (P49430 1-533): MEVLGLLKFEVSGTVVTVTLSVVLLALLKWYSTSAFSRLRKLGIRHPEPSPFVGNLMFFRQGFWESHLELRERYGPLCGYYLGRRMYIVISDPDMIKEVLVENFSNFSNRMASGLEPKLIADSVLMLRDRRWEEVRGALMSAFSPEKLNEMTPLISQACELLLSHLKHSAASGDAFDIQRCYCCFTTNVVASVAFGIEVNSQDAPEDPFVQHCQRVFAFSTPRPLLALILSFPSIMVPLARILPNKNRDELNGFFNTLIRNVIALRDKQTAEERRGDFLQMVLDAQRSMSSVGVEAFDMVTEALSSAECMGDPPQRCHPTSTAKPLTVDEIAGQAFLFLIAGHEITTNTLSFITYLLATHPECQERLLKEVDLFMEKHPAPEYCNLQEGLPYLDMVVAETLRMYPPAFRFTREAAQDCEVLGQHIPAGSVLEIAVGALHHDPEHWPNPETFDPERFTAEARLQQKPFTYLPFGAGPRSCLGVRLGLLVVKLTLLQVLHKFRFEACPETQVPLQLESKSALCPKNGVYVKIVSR
Kind of test: Inhibition of thromboxane formation in washed SHR platelets (TXB2 by direct radioimmunoassay). The settings on record: read-out: % Inhibition (of TXB2 formation), drug at 10^-4 M, 10 minutes at 37° C.

Description: From Okamoto-Aoki spontaneously hypertensive rats (SHR) (Taconic Farms, Germantown, NY) between 19 and 24 weeks in age, under urethane anesthesia, 10 μl of arterial blood was collected in one ml of 3.2% sodium citrate in a polystyrene tube. The blood was diluted with 3 ml cold saline and centrifuged at room temperature for 15 minutes at 460×g. The platelet rich plasma (PRP) was separated. The platelets were isolated by centrifuging the PRP for 10 minutes at 1060×g and were washed in 4 ml cold oxygenated Krebs phosphate buffer, pH 7.4. The chilled platelets recovered from centrifuging at 800×g for 10 minutes were resuspended in oxygenated Krebs phosphate buffer and diluted to contain 4.5-6.0×10^4 platelets/μl.
The inhibition of thromboxane (TX) formation was studied by determining the concentration of thromboxane B2 (TXB2), the stable hydrolysis product of TXA2. Assay samples, prepared on ice, contained 200 μl platelet suspension, 50 μl saline, and 50 μl vehicle or drug under study at a concentration of 10^-4 M (with OKY-1581, UK-37248-01, 1-benzylimidazole, and/or indomethacin used as standards). […] The TXB2 content for each sample was determined by a direct radioimmunoassay (RIA) utilizing a TXB2 specific RIA kit purchased from New England Nuclear, Boston, MA and results expressed as pg TXB2 formed minute^-1 sample^- 1, from which the percent inhibition of TXB2 formation was calculated.

With `O=c1c2cc(Cl)ccc2nnn1CCCCn1ccnc1`, the inhibition at 100 µM amounted to 79%.

`CC(Cn1ccnc1)Cn1nnc2ccc(Cl)cc2c1=O` (centres unmarked) [6-Chloro-3-[3-(1H-imidazol-1-yl)-2-methylpropyl]-1,2,3-benzotriazin-4(3H)-one]: the inhibition at 100 µM was 97%.

These data come from US4680293A, “3-imidazolylalkyl-, triazolylalkyl-, pyridinylalkyl-1,2,3-benzotriazin-4(3H)-ones and derivatives thereof” (American Cyanamid Company, priority 1986, dated 1987).
